The results in this text go back to ChEMBL document CHEMBL2074502, “Effect of furanocoumarin derivatives in grapefruit juice on the uptake of vinblastine by Caco-2 cells and on the activity of cytochrome P450 3A4” (Br J Pharmacol, 2000).

The structures appear in SMILES notation.

The target of the data set is ATP-dependent translocase ABCB1 (Homo sapiens, UniProt P08183). Briefly: TP_TRANSPORTER: increase uptake (Vinblastine: 0.01 uM) in Caco-2 cells. The format is functional, cell-based.
Chain of ATP-dependent translocase ABCB1 (P08183 whole entry): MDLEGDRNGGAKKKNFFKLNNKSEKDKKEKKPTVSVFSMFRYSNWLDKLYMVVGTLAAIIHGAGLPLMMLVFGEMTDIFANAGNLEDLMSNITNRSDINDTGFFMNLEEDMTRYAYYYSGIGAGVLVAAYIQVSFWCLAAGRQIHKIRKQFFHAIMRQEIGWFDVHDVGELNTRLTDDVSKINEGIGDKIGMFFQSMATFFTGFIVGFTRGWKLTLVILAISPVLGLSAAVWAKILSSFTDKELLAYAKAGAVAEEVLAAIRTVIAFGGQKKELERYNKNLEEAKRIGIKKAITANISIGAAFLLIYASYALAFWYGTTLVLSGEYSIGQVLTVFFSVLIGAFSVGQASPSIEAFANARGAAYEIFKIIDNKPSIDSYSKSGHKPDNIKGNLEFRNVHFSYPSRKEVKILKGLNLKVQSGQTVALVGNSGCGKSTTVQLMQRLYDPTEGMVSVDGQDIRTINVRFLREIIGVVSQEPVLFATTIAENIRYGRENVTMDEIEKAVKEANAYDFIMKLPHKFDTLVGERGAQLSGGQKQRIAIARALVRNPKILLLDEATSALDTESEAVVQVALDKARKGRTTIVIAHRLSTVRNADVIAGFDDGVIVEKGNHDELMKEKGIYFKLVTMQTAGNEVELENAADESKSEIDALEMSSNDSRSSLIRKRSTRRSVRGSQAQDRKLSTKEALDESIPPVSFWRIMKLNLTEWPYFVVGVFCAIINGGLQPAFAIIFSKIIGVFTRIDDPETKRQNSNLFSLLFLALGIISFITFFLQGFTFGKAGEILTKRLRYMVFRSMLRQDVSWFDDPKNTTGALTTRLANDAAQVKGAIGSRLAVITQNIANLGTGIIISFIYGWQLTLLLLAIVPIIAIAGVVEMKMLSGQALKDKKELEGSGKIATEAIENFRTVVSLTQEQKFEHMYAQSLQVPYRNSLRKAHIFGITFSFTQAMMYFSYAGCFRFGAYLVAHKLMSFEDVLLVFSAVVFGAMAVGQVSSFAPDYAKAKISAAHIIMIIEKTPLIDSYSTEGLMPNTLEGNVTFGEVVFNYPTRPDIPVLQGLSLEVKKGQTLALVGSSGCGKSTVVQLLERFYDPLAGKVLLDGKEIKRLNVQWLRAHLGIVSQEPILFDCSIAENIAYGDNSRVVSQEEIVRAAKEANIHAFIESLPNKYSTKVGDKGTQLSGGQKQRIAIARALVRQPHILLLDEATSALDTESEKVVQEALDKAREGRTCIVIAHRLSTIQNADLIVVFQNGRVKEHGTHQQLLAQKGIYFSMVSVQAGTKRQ
`C/C(=C\COc1c2ccoc2cc2oc(=O)ccc12)CC[C@@H](O)C(C)(C)O` registered an EC200 of 0.04 µM.
For `CC(C)=CCC/C(C)=C/COc1c2ccoc2cc2oc(=O)ccc12` [BERGAMOTTIN] the value was 0.035 µM; for `COc1c2ccoc2cc2oc(=O)ccc12` [BERGAPTEN], 0.05 µM; for `O=c1ccc2c(O)c3ccoc3cc2o1` [BERGAPTOL], 0.3 µM.
`C/C(=C\COc1c2ccoc2cc2oc(=O)ccc12)CCC(OC(C)(C)C(O)CC/C(C)=C/COc1c2ccoc2cc2oc(=O)ccc12)C(C)(C)O` (stereo not given) [FC726] yielded an EC200 of 0.035 µM.
